# Experimental data as given in the PolyMetriX glass transition set.
row,SMILES,glass transition temperature
1,*/C(C#N)=C(\C#N)N1C(=O)c2ccc(C(=O)c3ccc(-c4ccc5c(c4)C(=O)N(*)C5=O)cc3)cc2C1=O (repeat unit),249.00 °C
2,*OP(=O)(Oc1c(Cl)c(Cl)c(*)c(Cl)c1Cl)Oc1c(Cl)c(Cl)c(Cl)c(Cl)c1Cl (repeat unit),133.00 °C
3,*OP(=O)(Oc1ccc(Cl)cc1)Oc1c(Cl)c(Cl)c(*)c(Cl)c1Cl (repeat unit),119.00 °C
4,*OP(=O)(Oc1ccccc1)Oc1c(Cl)c(Cl)c(*)c(Cl)c1Cl (repeat unit),79.00 °C
5,*Oc1c(C)cc(*)cc1C(C)CCC (repeat unit),100.00 °C
6,*Oc1c(Cl)cc(*)cc1Br (repeat unit),188.50 °C
7,*Oc1cc(Br)cc(Br)c1* (repeat unit),170.00 °C
8,*Oc1cc(C)c(*)c(C)c1Br (repeat unit),280.1 °C
9,*Oc1cc(Cl)cc(Cl)c1* (repeat unit),165.00 °C
10,*Oc1ccc(-c2ccc(-c3cc(-c4ccccc4)c(-c4ccc(-c5ccc(OC(=O)c6ccc(C(*)=O)cc6-c6ccccc6)cc5)cc4)c(-c4ccccc4)c3-c3ccccc3)cc2)cc1 (repeat unit),260.00 °C
11,*Oc1ccc(-c2ccc(OC(*)(Oc3ccccc3)Oc3ccccc3)cc2)cc1 (repeat unit),112.00 °C
12,*Oc1ccc(-c2ccc(OC(=O)c3ccc(-c4ccc(C(*)=O)cc4)cc3-c3ccccc3)cc2)cc1 (repeat unit),168.00 °C
13,*Oc1ccc(-c2ccc(Oc3ccc4ccccc4c3-c3c(*)ccc4ccccc34)c3ccccc23)c2ccccc12 (repeat unit),301.00 °C
14,*Oc1ccc(/C(=C/c2ccc(-c3ccc(/C=C(\c4ccccc4)c4ccc(OC(=O)c5ccc(C(*)=O)cc5)cc4)cc3)cc2)c2ccccc2)cc1 (repeat unit),236.00 °C
15,*Oc1ccc(/C(=C/c2ccc(-c3ccc(/C=C(\c4ccccc4)c4ccc(OC(=O)c5cccc(C(*)=O)c5)cc4)cc3)cc2)c2ccccc2)cc1 (repeat unit),224.00 °C
16,*Oc1ccc(/N=N/c2ccc(Cc3ccc(/N=N/c4ccc(OC(=O)c5ccc(/N=N/c6ccc(C(*)=O)cc6)cc5)cc4)cc3[N+](=O)[O-])c([N+](=O)[O-])c2)cc1 (repeat unit),160.00 °C
17,*Oc1ccc(C(c2ccc(OC(=O)c3ccc(Oc4ccc(C(*)=O)cc4)cc3)cc2)(C(F)(F)F)C(F)(F)F)cc1 (repeat unit),181.00 °C
18,*Oc1ccc(C(c2ccccc2)(c2ccccc2)c2ccc(OC(*)=O)cc2)cc1 (repeat unit),213.00 °C

row,SMILES,glass transition temperature
1,*Oc1ccc(C(c2ccccc2)(c2ccccc2)c2ccc(Oc3ccc4c(=O)n5c6cc(-c7ccc8c(c7)nc7c9ccc(*)c%10cccc(c(=O)n87)c%109)ccc6nc5c5cccc3c45)cc2)cc1 (repeat unit),357.00 °C
2,*Oc1ccc(C2(c3ccc(OC(=O)C45CC6CC(CC(C(*)=O)(C6)C4)C5)cc3)c3ccccc3-c3ccccc32)cc1 (repeat unit),335.00 °C
3,*Oc1ccc(C2(c3ccc(OC(=O)c4ccc(C(*)=O)cc4)cc3)CCC3CCCCC3C2)cc1 (repeat unit),275.00 °C
4,*Oc1ccc(C2(c3ccc(OC(=O)c4ccc(C(*)=O)cc4)cc3)CCCCC2)cc1 (repeat unit),275.00 °C
5,*Oc1ccc(Oc2ccc(C(=O)Nc3ccc(Oc4ccc(-c5ccc(Oc6ccc(NC(=O)c7ccc(*)cc7)cc6)cc5)cc4)cc3)cc2)cc1C (repeat unit),220.00 °C
6,*c1cc(N2C(=O)c3ccc(Oc4cc5ccccc5cc4Oc4ccc5c(c4)C(=O)N(*)C5=O)cc3C2=O)cc(C(F)(F)F)c1 (repeat unit),250.00 °C
7,*c1ccc(C(c2ccc(N3C(=O)c4ccc(Oc5cc6ccccc6cc5Oc5ccc6c(c5)C(=O)N(*)C6=O)cc4C3=O)cc2)(C(F)(F)F)C(F)(F)F)cc1 (repeat unit),256.00 °C
8,*c1ccc(OC(=O)c2ccc(C(=O)Oc3ccc(C4(*)OCc5ccccc54)cc3)cc2)cc1 (repeat unit),312.00 °C
9,*c1ccc(OC(=O)c2cccc(C(=O)Oc3ccc(-c4nc5ccccc5nc4*)cc3)c2)cc1 (repeat unit),245.00 °C
10,*c1ccc(Oc2ccc(-c3ccc(Oc4ccc(N5C(=O)c6ccc(Oc7ccc(C(c8ccc(Oc9ccc%10c(c9)C(=O)N(*)C%10=O)cc8)(C(F)(F)F)C(F)(F)F)cc7)cc6C5=O)cc4)cc3)cc2)cc1 (repeat unit),217.00 °C
11,*c1ccc(Oc2ccc(C(=O)c3ccc(Oc4ccc(N5C(=O)c6ccc(S(=O)(=O)c7ccc8c(c7)C(=O)N(*)C8=O)cc6C5=O)cc4)cc3)cc2)cc1 (repeat unit),275.50 °C
12,*c1ccc(Oc2ccc(Oc3ccc(N4C(=O)c5ccc(Oc6cc7ccccc7cc6Oc6ccc7c(c6)C(=O)N(*)C7=O)cc5C4=O)cc3)cc2)cc1 (repeat unit),224.50 °C
13,*c1ccc(Oc2ccc(Oc3ccc(Oc4ccc(-c5cnc6cc(-c7ccc8nc(*)cnc8c7)ccc6n5)cc4)cc3)cc2)cc1 (repeat unit),133.00 °C
14,*c1ccc(Oc2ccc(Oc3ccc(Oc4ccc(N5C(=O)c6ccc(Oc7ccc(-c8ccc(Oc9ccc%10c(c9)C(=O)N(*)C%10=O)cc8)cc7)cc6C5=O)cc4)cc3)cc2)cc1 (repeat unit),208.00 °C
15,*c1ccc(Oc2cccc(N3C(=O)c4ccc(Oc5cc6ccccc6cc5Oc5ccc6c(c5)C(=O)N(*)C6=O)cc4C3=O)c2)cc1 (repeat unit),226.00 °C
16,*c1ccc(Oc2cccc(Oc3ccc(N4C(=O)c5ccc(Oc6ccc(-c7ccc(Oc8ccc9c(c8)C(=O)N(*)C9=O)cc7)cc6)cc5C4=O)cc3)c2)cc1 (repeat unit),205.00 °C
17,*c1ccc2c(c1)C(=O)N(c1ccc(Oc3ccc(C(=O)c4ccc(Oc5ccc(N6C(=O)c7ccc(C(*)(C(F)(F)F)C(F)(F)F)cc7C6=O)cc5)cc4)cc3)cc1)C2=O (repeat unit),266.00 °C
18,*c1cccc(N2C(=O)c3ccc(Oc4ccc(-c5ccc(Oc6ccc7c(c6)C(=O)N(*)C7=O)cc5)cc4)cc3C2=O)c1 (repeat unit),247.00 °C

# Other lines, results leading:
row,glass transition temperature,SMILES
1,109.00 °C,*CCOCCOCCN1C(=O)c2ccc(C(=O)Oc3ccc(-c4ccc(OC(=O)c5ccc6c(c5)C(=O)N(*)C6=O)cc4)cc3)cc2C1=O (repeat unit)
2,-38.00 °C,*O[Si](C)(C)O[Si](C)(C)O[Si](C)(C)O[Si](C)(C)O[Si](C)(C)Oc1c(*)c2ccccc2c2ccccc12 (repeat unit)
3,-4.00 °C,*O[Si](C)(C)O[Si](C)(C)Oc1ccc(-c2ccc(*)cc2)cc1 (repeat unit)
4,132.2 °C,*O[Si](Oc1ccc(-c2ccc(*)cc2)cc1)(c1ccccc1)c1ccccc1 (repeat unit)
5,212.00 °C,*Oc1c(-c2ccccc2)cc(*)cc1-c1cccc(-c2ccccc2)c1-c1ccccc1 (repeat unit)
6,234.00 °C,*Oc1c(-c2ccccc2)cc(*)cc1-c1cccc2ccccc12 (repeat unit)
7,54.00 °C,*Oc1c(C)cc(*)cc1C(C)CCCCCC (repeat unit)
8,-10.00 °C,*Oc1c(C)cc(*)cc1C(C)CCCCCCCCCCCC (repeat unit)
9,158.17 °C,*Oc1c(C)cc(-c2cc(C)c(Oc3ccc(C(=O)c4ccc(*)cc4)cc3)c(CBr)c2)cc1CBr (repeat unit)
10,273.00 °C,*Oc1c(Cl)cc(C(c2cc(Cl)c(OC(*)=O)c(Cl)c2)C(Cl)(Cl)Cl)cc1Cl (repeat unit)
11,290.00 °C,*Oc1c(Cl)cc(C2(c3cc(Cl)c(OC(*)=O)c(Cl)c3)CC3CCC2C3)cc1Cl (repeat unit)
12,268.00 °C,*Oc1cc(C(C)(C)C)c(Oc2ccc(C(=O)Nc3ccc(C(c4ccc(NC(=O)c5ccc(*)cc5)cc4)(C(F)(F)F)C(F)(F)F)cc3)cc2)cc1C(C)(C)C (repeat unit)
13,228.00 °C,*Oc1cc(C)c(C(c2cc(C(C)C)c(Oc3ccc(C(=O)c4ccc(*)cc4)cc3)cc2C)c2ccccc2C(=O)O)cc1C(C)C (repeat unit)
14,72.00 °C,*Oc1ccc(-c2ccc(OC(=O)c3cc(OCCCc4ccccc4)c(C(*)=O)cc3OCCCc3ccccc3)cc2)cc1 (repeat unit)
15,132.00 °C,*Oc1ccc(-c2ccc(OC(=O)c3ccc(C(*)=O)cc3)cc2)cc1-c1ccccc1 (repeat unit)
16,119.00 °C,*Oc1ccc(-c2ccc(Oc3cccc(*)n3)cc2)cc1 (repeat unit)
17,167.00 °C,*Oc1ccc(C(=C(Cl)Cl)c2ccc(OC(*)=O)cc2)cc1 (repeat unit)
18,174.00 °C,*Oc1ccc(C(=O)c2ccccc2)c(-c2cc(Oc3ccc(-c4ccc(*)cc4)cc3)ccc2C(=O)c2ccccc2)c1 (repeat unit)
19,253.00 °C,*Oc1ccc(C(c2ccc(OC(*)=O)cc2)C2CC3CC2C2C4CCC(C4)C32)cc1 (repeat unit)
20,190.00 °C,*Oc1ccc(C(c2ccc(OC(*)=O)cc2)C2CCCCC2)cc1 (repeat unit)
21,191.00 °C,*Oc1ccc(C(c2ccc(OC(*)=S)cc2)c2cccc3ccccc23)cc1 (repeat unit)
22,182.00 °C,*Oc1ccc(Oc2ccc(C(=O)c3ccc(-c4ccc(C(=O)c5ccc(*)cc5)cc4)cc3)cc2)cc1-c1ccc(S(=O)(=O)O)c(C)c1 (repeat unit)
23,145.00 °C,*Oc1ccc(Oc2ccc(C(=O)c3ccc(Oc4ccc(Oc5ccc(C(=O)c6ccc(*)c(C(C)C)c6)cc5)cc4)cc3)cc2C(C)C)cc1 (repeat unit)
24,230.00 °C,*Oc1ccc(Oc2ccc(C(=O)c3cccc4cccc(C(=O)c5ccc(*)cc5)c34)cc2)cc1C(C)(C)C (repeat unit)
25,210.00 °C,*Oc1cccc(Oc2ccc(-c3ccc(*)cc3)cc2)c1C#N (repeat unit)
26,321.00 °C,*c1ccc(Oc2cc(C(C)(C)C)ccc2Oc2ccc(-n3c(=O)c4cc5c(=O)n(*)c(=O)c5cc4c3=O)cc2)cc1 (repeat unit)
